Experimental data: publication PMC6954720, “Discovery of retinoic acid receptor agonists as proliferators of cardiac progenitor cells through a phenotypic screening approach” (Stem Cells Translational Medicine, 2019)
“Also recorded” adds a separate entry of the source. Where two headings read alike, the source gives them in different places.

Key:
[1] = system: human cardiac fibroblasts (CFs); assay: CF proliferation assay (nuclear count)
Method: To ensure that these molecules were not general proliferators of all cardiac cells, they were also tested in a human CF proliferation assay31 using nuclear count as the endpoint.

iPS-derived CPCs [2] = assay: Cardiac progenitor marker antibody staining of treated CPCs; assay type: cell-based, human; settings: 40 nM, 3 days
Method: (§1) The CPC proliferation assay including image and data analysis was performed as previously described.14 Cardiac progenitor marker antibodies are listed in Table S3.
A key requirement of the screen was that the expanded CPCs must retain their progenitor phenotype.
Figure 2 Cardiac progenitor cells (CPCs) retain progenitor markers after retinoic acid receptor agonist treatment. […] Larger images are representative merged images of Hoechst nuclear stain in blue and immunofluorescence of the indicated progenitor marker in green. Insets show the progenitor marker staining in gray scale at 3.3‐fold higher magnification. Scale bars: 50 μm

[3] = biological target: T1, RARB (beta) ligand binding domain (Homo sapiens, UniProt P10826); assay: RAR LBD-SRC1-2 coactivator peptide recruitment assay, agonist format, RARB; assay type: biochemical; settings: for EC50: read-out: RARβ pEC50 (converted)
T1 sequence (P10826 183-417 limits assumed): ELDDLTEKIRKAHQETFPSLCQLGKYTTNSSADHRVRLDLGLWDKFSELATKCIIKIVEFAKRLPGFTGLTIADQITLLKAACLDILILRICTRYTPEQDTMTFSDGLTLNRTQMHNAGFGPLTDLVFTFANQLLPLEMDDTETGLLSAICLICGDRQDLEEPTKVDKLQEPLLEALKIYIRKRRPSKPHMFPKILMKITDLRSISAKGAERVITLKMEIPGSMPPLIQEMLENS
Method: (§2) RAR ligand binding domain (LBD)‐SRC1‐2 coactivator peptide (NCOA1_677‐700 biotinylated) recruitment assays were established for the three RAR isotypes RARA (alpha), RARB (beta), and RARG (gamma) to determine relative potencies. […] A total of 0.4 μL of a fixed concentration range of test ligands dissolved in dimethyl sulphoxide (DMSO) was added to assay plates using an acoustic liquid dispenser. […] The raw data were transformed to % effect using the equation: compound % effect = 100 × [(X − min)/(max − min)], where X represents the effect in the presence of test compound and max and min are the effects in presence of the maximum and minimum controls, respectively.
(§3) The data were plotted to generate concentration‐response profiles and the concentration‐response curves were fit to the data using the four‐parameter logistic smart fit method in the Genedata Screener software (Genedata, Inc).

[4] = system: RAR-responsive genes in CPCs; assay: RNA seq analysis of AM580-treated CPCs; assay type: cell-based, human; settings: 4-hour and 24-hour time points
Method: CPC was seeded in fibronectin‐coated 24‐well plates, 150 000 cells in 0.5 mL media per well. […] Cell media were removed after 4 hours or 24 hours, and the cells were lysed for RNA preparation using the MagMax Total RNA Isolation kit. Triplicate samples were prepared for each treatment and time point. RNA integrity and concentration were analyzed on a fragment analyzer with the standard sensitivity RNA kit (Agilent, Santa Clara, California). RNA quality number was 8.2 on average.
A total of 1000 ng RNA per sample was processed with the TruSeq stranded mRNA kit (Illumina, San Diego, California) following the instructions from the manufacturer. […] Samples were pooled, diluted, and denatured according to Illumina's recommendations and sequenced on a NextSeq500 (High 150 cycles kit, reading 2 × 75 cycles). On average, samples had 13M reads with 93% of reads with >Q30.
RNA‐Seq data were processed using the bcbio pipeline version 0.9.7. Hisat2 version 2.0.2‐β aligner was used to align reads to the human genome version hg38. […] Differential expression analysis was performed on feature counts using DESeq2.32 Data quality was assessed using MultiQC.33 Genes with the lowest expression levels (less than five counts in at least two samples) were removed prior to differential expression estimation since they can be considered as nonexpressed.

[5] = system: human iPS-derived cardiac progenitor cells (CPCs); assay: CPC proliferation assay (nuclear count); assay type: cell-based; settings: for % Effect-normalised cell count: primary screen, relative to basic FGF 100 ng/mL
Method: as §1
A library of 10 000 compounds was screened in singlicate at three concentrations (0.1, 1.0, and 10 μM) in the CPC proliferation assay. Each plate contained neutral controls, 0.1% DMSO and maximum controls, 100 ng/mL human basic fibroblast growth factor (FGF; Invitrogen, ThermoFisher Scientific, Waltham, Massachusetts). The data were analyzed using the Genedata Screener software (Genedata, Inc, Basel, Switzerland). […] Results were calculated using the following calculation method: compound % effect = 100 × [(X − min)/(max − min)], where X represents a normalized value for the compound based on the neutral and maximum controls.
The library was screened in three‐point concentration response (CR) at 0.1, 1.0, and 10 μM measuring proliferation of human induced pluripotent stem (iPS)‐derived CPCs with nuclear count, as measured by Hoechst staining, as the primary endpoint.

[6] = biological target: T2, RARG (gamma) ligand binding domain (Homo sapiens, UniProt P13631); assay: RAR LBD-SRC1-2 coactivator peptide recruitment assay, agonist format, RARG; assay type: biochemical; settings: for EC50: read-out: RARγ pEC50 (converted)
T2 sequence (P13631 185-419 limits assumed): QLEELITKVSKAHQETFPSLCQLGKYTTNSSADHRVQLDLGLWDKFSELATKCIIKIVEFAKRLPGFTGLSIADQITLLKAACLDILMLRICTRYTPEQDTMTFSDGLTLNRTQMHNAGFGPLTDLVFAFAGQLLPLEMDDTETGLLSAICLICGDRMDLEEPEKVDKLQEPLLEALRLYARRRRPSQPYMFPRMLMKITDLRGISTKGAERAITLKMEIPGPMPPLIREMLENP
Method: as §2, §3

[7] = system: human iPS-derived cardiac progenitor cells (CPCs); assay: CPC proliferation assay (nuclear count); assay type: cell-based; settings: 10-point concentration response
[8] = biological target: T2, RARG (gamma) ligand binding domain; assay: RAR coactivator peptide recruitment assay, antagonist format, RARG; assay type: biochemical; settings: for IC50: 10 nM R-667, read-out: RARγ pIC50 (converted)
Method: as §2, §3

[9] = biological target: T1, RARB (beta) ligand binding domain; assay: RAR coactivator peptide recruitment assay, antagonist format, RARB; assay type: biochemical; settings: for IC50: read-out: RARβ pIC50 (converted)
Method: as §2, §3

[10] = biological target: T3, RARA (alpha) ligand binding domain (Homo sapiens, UniProt P10276); assay: RAR LBD-SRC1-2 coactivator peptide recruitment assay, agonist format, RARA; assay type: biochemical; settings: for EC50: read-out: RARα pEC50 (converted)
T3 sequence (P10276 183-417 limits assumed): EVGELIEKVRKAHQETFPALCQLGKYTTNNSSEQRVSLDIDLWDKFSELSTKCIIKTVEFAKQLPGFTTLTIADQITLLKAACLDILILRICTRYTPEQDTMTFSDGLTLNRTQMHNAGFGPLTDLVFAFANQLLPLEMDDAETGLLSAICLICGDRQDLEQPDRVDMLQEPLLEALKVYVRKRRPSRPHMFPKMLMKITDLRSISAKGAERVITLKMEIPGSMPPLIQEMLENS
Method: as §2, §3

[11] = biological target: T3, RARA (alpha) ligand binding domain; assay: RAR coactivator peptide recruitment assay, antagonist format, RARA; assay type: biochemical; settings: for IC50: read-out: RARα pIC50 (converted)
Method: as §2, §3

RAR = RAR coactivator recruitment assay (isotypes not separated); assay type: biochemical
Method: as §2, §3

[12] = system: HuES6 hPSC-derived cardiac progenitors; assay: HuES6-derived cardiac progenitors replated on day 5: cell number, RT-qPCR, immunocytochemistry; assay type: cell-based, human; settings: for terminal cardiac differentiation, in words / expression of cardiac progenitor markers vs untreated: 1 μM, day-5 replated cells, 4 days; for expression of cardiac progenitor markers vs untreated: with the exception of ISL1; for effect on cell proliferation / cell numbers, in words: 1.0 μM, day-5 replated progenitors, 4 days of exposure
Method: Insulin and signaling agonists were omitted after 1 day. On days 2‐3, the nascent mesodermal cells were specified to the cardiac lineage using 0.2 μM C‐59 (R&D Tocris) supplementation. Culture medium was replaced daily.
Basal cardiac progenitor medium was composed of DMEM/F12 (ThermoFisher Scientific), insulin/transferrin/selenium supplement, 0.1% human serum albumin (Biological Industries Inc, Cromwell, Connecticut), 1× chemically defined lipids (ThermoFisher Scientific), and antibiotics. RAR agonists (1 μM) were added from the day of passaging the cells. Samples were harvested and monitored after 4 days of treatment.
Cell numbers per well were quantified following single‐cell dissociation with Accutase and using standard Neubauer counting chambers. RT‐qPCR and immunocytochemistry were performed according to standard procedures. RPL37A served as housekeeping gene for normalization.

iPS-derived CPCs [13] = settings: absence of RAR agonist
From the text: Cells were fixed and nuclei stained on day 4 postplating and 3 days postcompound addition. […] The data represent the mean of two independent experiments each conducted in quadruplicate; error bars indicate SEM. […] The data for CPCs and CFs are obtained from two independent RNA preparations from each cell type

[14] = iPSC-derived CPC proliferation, read-out: CPC pEC50 (converted)

CC1(C)CCC(C)(C)c2cc(C(=O)Nc3ccc(C(=O)O)cc3)ccc21 [AM580]
CF proliferation, result in words [1]: inactive
expression of cardiac progenitor markers Nkx2.5, Islet1, Gata4, PDGFRα after treatment (iPS-derived CPCs [2]): retain expression
maximal effect (% top effect) [3]: 104%
mRNA expression of RAR-responsive genes (RARB, RBP1, CRABP2, CYP26A1) [4]: significant increase
% Effect-normalised cell count ([5]; Log Concentration M -5 (10 μM)): 49.6%
% Effect-normalised cell count ([5]; Log Concentration M -6 (1.0 μM)): 76.4%
% Effect-normalised cell count ([5]; Log Concentration M -7 (0.1 μM)): 106%
RARγ pEC50 (% top effect): % top effect [6]: 99%
EC50 ([7]; read-out: EC50, CPC proliferation): 0.005 µM
EC50 [7, 14]: 0.00631 µM

Cc1cc2c(cc1-c1cc(/C=C/C(=O)O)ccc1O)C(C)(C)CCC2(C)C [CD 3254]
EC50 [3]: > 20 µM
IC50 [8]: > 20 µM
CPC proliferation, result in words [5]: inactive
EC50 [6]: > 20 µM
EC50 [7, 14]: > 10 µM
IC50 [9]: > 20 µM
EC50 [10]: > 20 µM
IC50 [11]: > 20 µM

CC1=C(/C=C/C(C)=C/C=C/C(C)=C/CO)C(C)(C)CCC1 [Retinol]
EC50 [3]: > 20 µM
IC50 [8]: > 20 µM
CPC proliferation, result in words [5]: no effect
EC50 [6]: > 20 µM
EC50 [7, 14]: > 10 µM
activity in RAR coactivator recruitment assay, in words (RAR): inactive
IC50 [9]: > 20 µM
EC50 [10]: > 20 µM
IC50 [11]: > 20 µM

C/C(=C\c1ccc(C(=O)O)cc1)c1ccc2c(c1)C(C)(C)CCC2(C)C [TTNPB]
terminal cardiac differentiation, in words [12]: pronounced inhibition of terminal cardiac differentiation
expression of cardiac progenitor markers vs untreated [12]: enhanced the expression of cardiac progenitor markers
effect on cell proliferation / cell numbers, in words [12]: strong positive effects on cell proliferation
CPC proliferation, result in words [5]: EC50 values in the low nanomolar range
EC50 [7, 14]: 0.00316 µM

CC1(C)CCC(C)(C)c2cc(NC(=O)c3ccc(C(=O)O)cc3)ccc21 [AM80]
expression of cardiac progenitor markers Nkx2.5, Islet1, Gata4, PDGFRα after treatment (iPS-derived CPCs [2]): retain expression
maximal effect (% top effect) [3]: 149%
terminal cardiac differentiation, in words [12]: pronounced inhibition of terminal cardiac differentiation
expression of cardiac progenitor markers vs untreated [12]: enhanced the expression of cardiac progenitor markers
effect on cell proliferation / cell numbers, in words [12]: strong positive effects on cell proliferation
CPC proliferation, result in words [5]: EC50 values in the low nanomolar range
RARγ pEC50 (% top effect): % top effect [6]: 119%
EC50 [7, 14]: 0.00794 µM

CC1=C(/C=C/C(C)=C\C=C\C(C)=C\C(=O)O)C(C)(C)CCC1 [9‐cis‐retinoic acid]
CPC proliferation, result in words [5]: inactive
EC50 [7, 14]: > 10 µM

CC1(C)CCC(C)(C)c2cc(C#Cc3ccc(C(=O)O)cc3)ccc21 [EC 23]
terminal cardiac differentiation, in words [12]: pronounced inhibition of terminal cardiac differentiation
expression of cardiac progenitor markers vs untreated [12]: enhanced the expression of cardiac progenitor markers
effect on cell proliferation / cell numbers, in words [12]: strong positive effects on cell proliferation
CPC proliferation, result in words [5]: EC50 values in the low nanomolar range
EC50 [7, 14]: 0.00126 µM

CC1(C)CCC(C)(C)c2cc(C3(c4ccc(C(=O)O)cc4)OCCO3)ccc21 [SR 11237]
EC50 [3]: > 20 µM
CPC proliferation, result in words [5]: inactive
EC50 [6]: > 20 µM
EC50 [7, 14]: > 10 µM
IC50 [9]: > 20 µM
EC50 [10]: > 20 µM
IC50 [11]: > 20 µM

Cc1ccc(C2=CC(C)(C)Oc3c(Br)cc(C(=O)Nc4ccc(C(=O)O)c(F)c4)cc32)cc1 [AGN 194301]
EC50 [3]: > 20 µM
RARγ pIC50 (% top effect): % top effect ([8]; 10 nM R-667): 106%
IC50 [8]: 0.02 µM
EC50 [6]: > 20 µM
effect on CPC proliferation of antagonist alone (iPS-derived CPCs [13]): did not proliferate the cells; also recorded: no effect on proliferation
toxicity to CPCs (iPS-derived CPCs [13]): no signs of toxicity
EC50 [7, 14]: > 10 µM
RARβ pIC50 (% top effect): % top effect ([9]; antagonist format, 10 nM TTNPB): 105%
IC50 [9]: 0.00126 µM
EC50 [10]: > 20 µM
RARα pIC50 (% top effect): % top effect ([11]; antagonist format, 10 nM ATRA): 108%
IC50 [11]: 0.00251 µM

CC1(C)CCC(C)(C)c2cc(C(=O)Nc3ccc(C(=O)O)c(F)c3)ccc21 [AGN 193312]
maximal effect (% top effect) [3]: 100%
EC50 [3]: 0.01 µM
CPC proliferation, result in words [5]: EC50 values in the low nanomolar range
RARγ pEC50 (% top effect): % top effect [6]: 88%
EC50 [6]: 0.1 µM
EC50 [7, 14]: 0.00794 µM
top effect (% of maximum control) [10]: 159%
EC50 [10]: 0.00398 µM
